Assay results taken from PubChem BioAssay (NCI).
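1) Cells in 96-well plates. 2) Compound, 48 h, 5 concentrations. 3) Linear interpolation between surrounding doses. 4) Unreached endpoint = highest concentration. At the TGI there is no net growth.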

Assays:
Assay in all cases: NCI tumour cell line growth inhibition, 48 h
[1] = system: 786-0 renal
[2] = system: DU-145 prostate
[3] = system: SNB-75 CNS
[4] = system: PC-3 prostate
[5] = system: HOP-62 NSCLC
[6] = system: CCRF-CEM leukemia
[7] = system: HCT-116 colon
[8] = system: KM12 colon
[9] = system: MDA-N
[10] = system: RPMI-8226 leukemia
[11] = system: SF-268 CNS
[12] = system: MDA-MB-231 breast
[13] = system: TK-10 renal
[14] = system: SN12C renal
[15] = system: A549 NSCLC
[16] = system: HL-60(TB) leukemia
[17] = system: MOLT-4 leukemia
[18] = system: MDA-MB-435
[19] = system: BT-549 breast
[20] = system: OVCAR-8 ovarian
[21] = system: HT29 colon
[22] = system: SK-MEL-2 melanoma
[23] = system: SF-295 CNS
[24] = system: CAKI-1 renal
[25] = system: OVCAR-4 ovarian
[26] = system: NCI-H522 lung
[27] = system: HCT-15 colon
[28] = system: HS 578T breast
[29] = system: COLO 205 colon
[30] = system: SK-MEL-28 melanoma
[31] = system: HOP-92 NSCLC
[32] = system: OVCAR-5 ovarian
[33] = system: HCC-2998 colon
[34] = system: SNB-19 CNS
[35] = system: UO-31 renal
[36] = system: T-47D breast
[37] = system: SW-620 colon
[38] = system: SK-MEL-5 melanoma
[39] = system: EKVX NSCLC
[40] = system: SF-539 CNS
[41] = system: SR leukemia
[42] = system: IGROV1 ovarian
[43] = system: M14 melanoma
[44] = system: LOX IMVI melanoma
[45] = system: U251 CNS
[46] = system: NCI-H460 lung
[47] = system: ACHN renal
[48] = system: UACC-257 melanoma
[49] = system: NCI/ADR-RES ovarian
[50] = system: OVCAR-3 ovarian
[51] = system: MCF7 breast
[52] = system: NCI-H23 lung
[53] = system: UACC-62 melanoma
[54] = system: MALME-3M melanoma
[55] = system: RXF 393 renal
[56] = system: K-562 leukemia
[57] = system: SK-OV-3 ovarian

Q: For `Nc1ccn(C2CC(O)C(COP(O)(=S)OC3CC(n4ccc(N)nc4=O)OC3CO)O2)c(=O)n1` (stereo unspecified), which TGI [1] is on record?
A: > 100 µM

Q: And the TGI [2]?
A: > 100 µM

Q: What about the TGI [3] of the same compound?
A: > 100 µM

Q: What about the TGI [4] of the same compound?
A: > 100 µM

Q: And the TGI [5]?
A: > 100 µM

Q: What about the TGI [6] of the same compound?
A: > 100 µM

Q: What about the TGI [7] of the same compound?
A: > 100 µM

Q: What about the TGI [8] of the same compound?
A: > 100 µM

Q: And the TGI [9]?
A: > 100 µM

Q: And the TGI [10]?
A: > 100 µM

Q: What about the TGI [11] of the same compound?
A: > 100 µM

Q: What about the TGI [12] of the same compound?
A: > 100 µM

Q: What about the TGI [13] of the same compound?
A: > 100 µM

Q: And the TGI [14]?
A: > 100 µM

Q: And the TGI [15]?
A: > 100 µM

Q: What about the TGI [16] of the same compound?
A: > 100 µM

Q: What about the TGI [17] of the same compound?
A: > 100 µM

Q: What about the TGI [18] of the same compound?
A: > 100 µM

Q: What about the TGI [19] of the same compound?
A: > 100 µM

Q: And the TGI [20]?
A: > 100 µM

Q: And the TGI [21]?
A: > 100 µM

Q: What about the TGI [22] of the same compound?
A: > 100 µM

Q: And the TGI [23]?
A: > 100 µM

Q: What about the TGI [24] of the same compound?
A: > 100 µM

Q: What about the TGI [25] of the same compound?
A: > 100 µM

Q: What about the TGI [26] of the same compound?
A: > 100 µM

Q: And the TGI [27]?
A: > 100 µM

Q: And the TGI [28]?
A: > 100 µM

Q: What about the TGI [29] of the same compound?
A: > 100 µM

Q: What about the TGI [30] of the same compound?
A: > 100 µM

Q: What about the TGI [31] of the same compound?
A: > 100 µM

Q: And the TGI [32]?
A: > 100 µM

Q: What about the TGI [33] of the same compound?
A: > 100 µM

Q: What about the TGI [34] of the same compound?
A: > 100 µM

Q: And the TGI [35]?
A: > 100 µM

Q: What about the TGI [36] of the same compound?
A: > 100 µM

Q: And the TGI [37]?
A: > 100 µM

Q: What about the TGI [38] of the same compound?
A: > 100 µM

Q: What about the TGI [39] of the same compound?
A: > 100 µM

Q: And the TGI [40]?
A: > 100 µM

Q: And the TGI [41]?
A: > 100 µM

Q: What about the TGI [42] of the same compound?
A: > 100 µM

Q: What about the TGI [43] of the same compound?
A: > 100 µM

Q: And the TGI [44]?
A: > 100 µM

Q: What about the TGI [45] of the same compound?
A: > 100 µM

Q: What about the TGI [46] of the same compound?
A: > 100 µM

Q: And the TGI [47]?
A: > 100 µM

Q: And the TGI [48]?
A: > 100 µM

Q: What about the TGI [49] of the same compound?
A: > 100 µM

Q: And the TGI [50]?
A: > 100 µM

Q: What about the TGI [51] of the same compound?
A: > 100 µM

Q: And the TGI [52]?
A: > 100 µM

Q: What about the TGI [53] of the same compound?
A: > 100 µM

Q: Which TGI [1] does the source give for `CC1=C/C(=N\OCC(=O)O)CC(c2ccc(C(C)C)cc2)C1` (stereo unspecified) here?
A: > 100 µM

Q: What about the TGI [2] of the same compound?
A: > 100 µM

Q: And the TGI [4]?
A: > 100 µM

Q: And the TGI [54]?
A: > 100 µM

Q: And the TGI [6]?
A: > 100 µM

Q: What about the TGI [7] of the same compound?
A: > 100 µM

Q: And the TGI [8]?
A: > 100 µM

Q: And the TGI [9]?
A: > 100 µM

Q: And the TGI [10]?
A: 57.1 µM

Q: What about the TGI [12] of the same compound?
A: > 100 µM

Q: And the TGI [14]?
A: > 100 µM

Q: What about the TGI [15] of the same compound?
A: > 100 µM

Q: And the TGI [16]?
A: > 100 µM

Q: What about the TGI [17] of the same compound?
A: 68.1 µM

Q: What about the TGI [18] of the same compound?
A: > 100 µM

Q: What about the TGI [20] of the same compound?
A: > 100 µM

Q: And the TGI [21]?
A: 37.6 µM

Q: What about the TGI [22] of the same compound?
A: > 100 µM

Q: What about the TGI [23] of the same compound?
A: > 100 µM

Q: And the TGI [24]?
A: > 100 µM

Q: And the TGI [26]?
A: 79.1 µM

Q: And the TGI [27]?
A: 71.9 µM

Q: What about the TGI [28] of the same compound?
A: > 100 µM

Q: And the TGI [29]?
A: > 100 µM

Q: And the TGI [31]?
A: > 100 µM

Q: And the TGI [32]?
A: > 100 µM

Q: And the TGI [36]?
A: > 100 µM

Q: What about the TGI [55] of the same compound?
A: > 100 µM

Q: What about the TGI [37] of the same compound?
A: > 100 µM

Q: What about the TGI [38] of the same compound?
A: 34.1 µM

Q: What about the TGI [39] of the same compound?
A: > 100 µM

Q: And the TGI [40]?
A: > 100 µM

Q: What about the TGI [41] of the same compound?
A: > 100 µM

Q: And the TGI [42]?
A: > 100 µM

Q: And the TGI [43]?
A: > 100 µM

Q: And the TGI [45]?
A: > 100 µM

Q: What about the TGI [46] of the same compound?
A: > 100 µM

Q: What about the TGI [56] of the same compound?
A: > 100 µM

Q: And the TGI [48]?
A: > 100 µM

Q: And the TGI [57]?
A: > 100 µM

Q: And the TGI [49]?
A: 75.5 µM

Q: What about the TGI [51] of the same compound?
A: > 100 µM

Q: What about the TGI [53] of the same compound?
A: > 100 µM
